The source of these data is ChEMBL document CHEMBL1201862, “PubChem BioAssay data set” (2004).

SMILES strings stand for the structures.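 Protocol summary: plate cells (96-well), add compound at 5 concentrations, incubate 48 h, interpolate endpoints linearly. GI50 is the concentration that inhibits growth by half.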 Active and inactive are the calls of the source. No stated cut-off is given here; in the data, active = GI50 up to about 1.1 µM and inactive = higher. Some results are limits rather than exact numbers.

Among the test systems are SW-620; HOP-62; SK-MEL-28; SF-268; SK-MEL-2; K562; MCF7; UO-31; CCRF-CEM; SR; CAKI-1; SF-539; RPMI-8226; A549; MDA-MB-231; ACHN; DU-145; UACC-62; LOX IMVI.
Assay in all cases: growth of human tumour cells (NCI), 48 h

Turning to `COc1ccc2oc(=N)c(C(=O)Nc3cccc4ccccc34)cc2c1`, the GI50 in the test with SW-620 is 7.57 µM (inactive); with HOP-62, 11 µM (inactive); in the test on SK-MEL-28 it was > 100 µM (inactive); with SF-268 it was 25.9 µM (inactive); in the test with SK-MEL-2, 18.8 µM (inactive); with K562 it was 0.526 µM (active). Besides, the GI50 in the test on MCF7 is 5.7 µM (inactive); in the test on UO-31, 13 µM (inactive); in the test on CCRF-CEM, 2.33 µM (inactive); with SR, 0.29 µM (active); with CAKI-1, 29.5 µM (inactive); in the test with SF-539 it was 15.3 µM (inactive). The GI50 is 14.1 µM (inactive) in the test on RPMI-8226; 25.1 µM (inactive) in the test with A549; 26 µM (inactive) in the test on MDA-MB-231; 25.5 µM (inactive) in the test with ACHN; 24 µM (inactive) with DU-145; 2.47 µM (inactive) in the test on UACC-62.

For the compound `O=C(CN1CCOCC1)c1ccc2c(c1)oc(=O)n2CCN1CCOCC1`, the GI50 with SW-620, in the test on HOP-62, in the test with SK-MEL-28, in the test with SF-268, in the test on SK-MEL-2 and in the test with K562 was > 100 µM (inactive) throughout. Also, the GI50 in the test on MCF7, in the test on CCRF-CEM, with SR, in the test with CAKI-1, in the test with SF-539 and in the test on RPMI-8226 was > 100 µM (inactive) each time. Besides, the GI50 in the test on MDA-MB-231, with DU-145 and in the test with LOX IMVI was > 100 µM (inactive) each time.

For `O=C(O)c1cc(N(Cc2ccccc2O)Cc2cc(O)ccc2O)ccc1O` [LAVENDUSTIN A], the GI50 with SW-620, in the test with HOP-62, in the test with SK-MEL-28, in the test with SF-268, in the test with SK-MEL-2 and with K562 was > 100 µM (inactive) in each case. The GI50 is > 100 µM (inactive) in the test on MCF7; > 100 µM (inactive) with UO-31; 45.4 µM (inactive) in the test on CCRF-CEM; 82.8 µM (inactive) in the test with SR; > 100 µM (inactive) in the test on SF-539; > 100 µM (inactive) in the test with RPMI-8226. Also, the GI50 in the test with A549 is > 100 µM (inactive); in the test with MDA-MB-231, > 100 µM (inactive); with ACHN, > 100 µM (inactive); in the test with DU-145, > 100 µM (inactive); with UACC-62 it was > 100 µM (inactive); in the test with LOX IMVI, 34.9 µM (inactive).

Consider `N#Cc1c(-c2ccc(F)cc2)c(-c2ccc(F)cc2)nn(CCO)c1=O`, for which the GI50 in the test on HOP-62 is 0.493 µM (active); in the test with SK-MEL-28, 17.8 µM (inactive); in the test on SF-268, 0.875 µM (active); with SK-MEL-2 it was < 0.01 µM (active); in the test with K562 it was 0.103 µM (active); with MCF7, 3.16 µM (inactive). The GI50 with UO-31 was 1.38 µM (inactive); in the test on CCRF-CEM, 0.564 µM (active); in the test with SR, 0.2 µM (active); with CAKI-1, 1.53 µM (inactive); with SF-539, 0.198 µM (active); in the test with RPMI-8226, 0.213 µM (active). In addition, the GI50 in the test with A549 is 0.25 µM (active); in the test with MDA-MB-231 it was 0.661 µM (active); with ACHN, 0.413 µM (active); in the test on DU-145, 0.743 µM (active); in the test on UACC-62 it was 0.14 µM (active).

For `CC1=CC(=O)/C(=C/n2c(=S)[nH]c3ccc([N+](=O)[O-])cc32)C(=O)O1`, the GI50 in the test on SW-620, in the test with HOP-62, in the test with SK-MEL-28, in the test on SF-268, in the test on SK-MEL-2 and with K562 was > 100 µM (inactive) in each case. In addition, the GI50 in the test with MCF7, in the test on UO-31, in the test on CCRF-CEM, in the test on SR, in the test on SF-539 and in the test on RPMI-8226 was > 100 µM (inactive) in each case. The GI50 in the test on A549, with MDA-MB-231, in the test with ACHN, in the test with DU-145, with UACC-62 and in the test with LOX IMVI was > 100 µM (inactive) throughout.

With `C=CCc1cccc2cc(C(=O)Nc3nc(C45CC6CC(CC(C6)C4)C5)cs3)c(=O)oc12`, the GI50 in the test with SW-620 was 31.7 µM (inactive); with HOP-62, 17.8 µM (inactive); with SK-MEL-28 it was 61.8 µM (inactive); in the test with SF-268, 10.7 µM (inactive); in the test on K562 it was 27.4 µM (inactive); in the test on MCF7, > 100 µM (inactive). Besides, the GI50 is 10.8 µM (inactive) in the test with UO-31; 64.3 µM (inactive) in the test with CCRF-CEM; 28.9 µM (inactive) in the test on SR; 20.6 µM (inactive) in the test with CAKI-1; > 100 µM (inactive) in the test with SF-539; 26.9 µM (inactive) with RPMI-8226. In addition, the GI50 with A549 was 49.9 µM (inactive); with MDA-MB-231, 23.4 µM (inactive); with ACHN it was 17 µM (inactive); in the test with DU-145 it was 44.6 µM (inactive); in the test on LOX IMVI, 19.4 µM (inactive).

In the case of `COCCN(C(=O)c1ccccc1)C1CCC2(SCCS2)c2[nH]c3ccccc3c21` (configuration not stated), the GI50 is 33.3 µM (inactive) in the test on SW-620; > 100 µM (inactive) with HOP-62; 74 µM (inactive) in the test with SK-MEL-28; > 100 µM (inactive) with SF-268; 15.9 µM (inactive) in the test with K562; 37.5 µM (inactive) in the test on MCF7. Besides, the GI50 in the test on UO-31 is 40.7 µM (inactive); with CCRF-CEM, 29.8 µM (inactive); with SR, 29.7 µM (inactive); in the test on CAKI-1 it was 79.6 µM (inactive); in the test on SF-539, 85.5 µM (inactive); in the test with RPMI-8226, 20.2 µM (inactive). The GI50 with A549 was 26.2 µM (inactive); with MDA-MB-231, 57.7 µM (inactive); in the test with ACHN it was 37.5 µM (inactive); in the test on DU-145, > 100 µM (inactive); in the test on LOX IMVI, 57.7 µM (inactive).

For `CCn1c(=O)c2nc(SC)sc2n(-c2ccccc2)c1=S`, the GI50 was 93.1 µM (inactive) in the test with SW-620; > 100 µM (inactive) with HOP-62; > 100 µM (inactive) in the test on SK-MEL-28; > 100 µM (inactive) in the test on SF-268; 28.6 µM (inactive) in the test with SK-MEL-2; 11.3 µM (inactive) in the test on K562. The GI50 is 76.4 µM (inactive) with MCF7; 16.6 µM (inactive) in the test with UO-31; 19.6 µM (inactive) in the test on CCRF-CEM; > 100 µM (inactive) with SR; 69.2 µM (inactive) in the test with SF-539; 74.6 µM (inactive) in the test with RPMI-8226. Moreover, the GI50 in the test with A549 was 98.9 µM (inactive); in the test with MDA-MB-231, > 100 µM (inactive); in the test on ACHN, 43.9 µM (inactive); in the test with DU-145 it was > 100 µM (inactive); in the test on UACC-62, 38 µM (inactive); in the test on LOX IMVI it was 42.5 µM (inactive).

Turning to `C=Cc1ccccc1C1(O)C=CC(OC)(OC)C=C1`, the GI50 is 3.8 µM (inactive) with SW-620; 6.31 µM (inactive) with HOP-62; 6.89 µM (inactive) in the test on SK-MEL-28; 9.62 µM (inactive) with SF-268; 17.3 µM (inactive) with SK-MEL-2; 7.6 µM (inactive) with K562. Moreover, the GI50 with MCF7 was 2.94 µM (inactive); with UO-31, 7.24 µM (inactive); in the test with CCRF-CEM it was 2.94 µM (inactive); in the test on SR, 2.65 µM (inactive); in the test on CAKI-1, 5.68 µM (inactive); with SF-539 it was 2.72 µM (inactive). For the same compound, the GI50 was 6.41 µM (inactive) with RPMI-8226; 17.3 µM (inactive) in the test with A549; 10.5 µM (inactive) with MDA-MB-231; 12.4 µM (inactive) with ACHN; 20.4 µM (inactive) in the test with DU-145; 4.51 µM (inactive) with UACC-62.

`CC[C@@]1(O)C(=O)OCc2c1cc1n(c2=O)Cc2c-1nc1ccccc1c2/C=N\NC(=O)C(N)Cc1ccc(O)cc1` (some centres not stated): the GI50 in the test with SW-620 was 1.52 µM (inactive); in the test with HOP-62, 0.248 µM (active); in the test on SK-MEL-28 it was 6.24 µM (inactive); in the test on SF-268, 0.202 µM (active); with K562 it was 0.531 µM (active); with MCF7, 0.367 µM (active). The GI50 in the test on UO-31 is 0.619 µM (active); with CCRF-CEM, < 0.0236 µM (active); in the test with SR it was < 0.0188 µM (active); with CAKI-1, 0.315 µM (active); with SF-539, 0.0731 µM (active); in the test with RPMI-8226 it was 0.867 µM (active). The GI50 with A549 was 0.815 µM (active); in the test with MDA-MB-231, 15.8 µM (inactive); with ACHN, 0.133 µM (active); in the test on DU-145 it was 0.331 µM (active); in the test with UACC-62 it was 0.209 µM (active); with LOX IMVI, 0.189 µM (active).

`COC(=O)C1CCC(=O)N1CN(C(C)=O)c1ccccc1Cl` (configuration not stated): the GI50 in the test on SW-620 was > 100 µM (inactive); with HOP-62 it was > 100 µM (inactive); in the test with SK-MEL-28, > 100 µM (inactive); in the test on SF-268, > 100 µM (inactive); with SK-MEL-2 it was > 100 µM (inactive); in the test on K562, > 10 µM (inactive). Further, the GI50 with MCF7, with UO-31, with SR, in the test on CAKI-1, in the test on SF-539 and in the test on RPMI-8226 was > 100 µM (inactive) throughout. Besides, the GI50 with A549, in the test on MDA-MB-231, in the test on ACHN, with DU-145, in the test on UACC-62 and with LOX IMVI was > 100 µM (inactive) throughout.
